Experimental data: ChEMBL document CHEMBL4376834, “Discovery of 4H-Chromen-4-one Derivatives as a New Class of Selective Rho Kinase (ROCK) Inhibitors, which Showed Potent Activity in ex Vivo Diabetic Retinopathy Models” (J Med Chem, 2019)

Key:
[1] = target: Tyrosine-protein kinase receptor UFO (Homo sapiens, UniProt P30530, Q764R); test: Inhibition of human recombinant Axl Q764R mutant (473 to end residues) using KKSRGDYMTMQIG as substrate measured after 40 mins in presence of [gamma33P]ATP by radiometric scintillation counting analysis
[2] = target: Serine/threonine-protein kinase 26 (Homo sapiens, UniProt Q9P289); test: Inhibition of recombinant human MST4 (4 to 304 residues) using RLGRDKYKTLRQI as substrate measured after 40 mins in presence of [gamma33P]ATP by radiometric scintillation counting analysis
[3] = Apparent permeability in dog MDCK cells incubated for 90 mins by LC-MS analysis; format: ADME, cell-based, Canis lupus familiaris
[4] = target: Proto-oncogene tyrosine-protein kinase Src (Homo sapiens, UniProt P12931); test: Inhibition of recombinant human C-Src using […] as substrate incubated 40 mins in presence of [gamma-33ATP] by radiometric scintillation counting analysis
Chain of Proto-oncogene tyrosine-protein kinase Src (P12931 2-536 limits assumed): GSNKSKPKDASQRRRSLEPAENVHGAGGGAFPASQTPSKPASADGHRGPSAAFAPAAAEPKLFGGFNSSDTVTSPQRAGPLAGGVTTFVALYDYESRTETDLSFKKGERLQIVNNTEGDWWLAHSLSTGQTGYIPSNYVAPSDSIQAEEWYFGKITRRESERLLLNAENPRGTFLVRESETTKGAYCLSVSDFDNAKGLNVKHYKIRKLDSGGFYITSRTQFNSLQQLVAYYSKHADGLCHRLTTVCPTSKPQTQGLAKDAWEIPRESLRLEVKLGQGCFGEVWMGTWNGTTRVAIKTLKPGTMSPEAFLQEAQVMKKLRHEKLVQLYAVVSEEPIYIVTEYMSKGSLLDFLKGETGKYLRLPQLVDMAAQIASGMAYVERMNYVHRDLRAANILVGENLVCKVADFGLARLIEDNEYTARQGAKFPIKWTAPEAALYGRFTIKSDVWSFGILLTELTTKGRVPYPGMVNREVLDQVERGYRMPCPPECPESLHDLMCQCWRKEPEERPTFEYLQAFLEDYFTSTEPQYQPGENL

[5] = Inhibition of recombinant human MAPKAPK2 A399G mutant (46 to end residues) using KKLNRTLSVA as substrate incubated for 40 mins in presence of [gamma-33ATP by radiometric scintillation counting analysis
SRSF protein kinase 2 = SRSF protein kinase 2 (Homo sapiens, UniProt P78362); test: Inhibition of recombinant human SRPK2 (46 to end residues) using RSRSRSRSRSRSRSR as substrate incubated for 40 mins in presence of [gamma33P]ATP by radiometric scintillation counting analysis
Chain of SRSF protein kinase 2 (P78362 whole entry): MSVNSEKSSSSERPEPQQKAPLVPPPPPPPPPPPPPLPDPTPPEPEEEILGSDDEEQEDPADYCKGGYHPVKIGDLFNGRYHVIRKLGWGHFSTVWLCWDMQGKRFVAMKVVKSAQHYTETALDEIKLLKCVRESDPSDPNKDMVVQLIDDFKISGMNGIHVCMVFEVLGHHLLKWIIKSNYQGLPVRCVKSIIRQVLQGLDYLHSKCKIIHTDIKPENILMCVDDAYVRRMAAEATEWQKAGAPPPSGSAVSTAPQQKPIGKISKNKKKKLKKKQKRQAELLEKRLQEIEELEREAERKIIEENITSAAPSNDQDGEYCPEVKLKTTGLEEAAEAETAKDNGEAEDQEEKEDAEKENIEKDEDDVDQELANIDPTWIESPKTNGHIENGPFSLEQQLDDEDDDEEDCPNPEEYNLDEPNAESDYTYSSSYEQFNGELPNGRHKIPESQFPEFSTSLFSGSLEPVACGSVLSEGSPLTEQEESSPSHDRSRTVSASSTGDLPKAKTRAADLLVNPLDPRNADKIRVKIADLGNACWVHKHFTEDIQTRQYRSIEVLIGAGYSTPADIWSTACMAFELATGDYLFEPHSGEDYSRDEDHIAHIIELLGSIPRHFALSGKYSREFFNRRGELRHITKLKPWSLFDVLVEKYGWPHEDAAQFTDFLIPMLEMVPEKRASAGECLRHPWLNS

[6] = Inhibition of recombinant full length human PRAK R291E mutant using KKLRRTLSVA as substrate incubated for 40 mins in presence of [gamma33P]ATP by radiometric scintillation counting analysis
[7] = target: Epidermal growth factor receptor (Homo sapiens, UniProt P00533, T790M); test: Inhibition of recombinant human EGFR T790M mutant (696 to end residues) using poly(Glu, Tyr) 4:1 as substrate after 40 mins in presence of [gamma-33ATP] by radiometric scintillation counting analysis
Chain of Epidermal growth factor receptor (Homo sapiens, UniProt P00533, T790M) (P00533 25-1210 T790M limits assumed): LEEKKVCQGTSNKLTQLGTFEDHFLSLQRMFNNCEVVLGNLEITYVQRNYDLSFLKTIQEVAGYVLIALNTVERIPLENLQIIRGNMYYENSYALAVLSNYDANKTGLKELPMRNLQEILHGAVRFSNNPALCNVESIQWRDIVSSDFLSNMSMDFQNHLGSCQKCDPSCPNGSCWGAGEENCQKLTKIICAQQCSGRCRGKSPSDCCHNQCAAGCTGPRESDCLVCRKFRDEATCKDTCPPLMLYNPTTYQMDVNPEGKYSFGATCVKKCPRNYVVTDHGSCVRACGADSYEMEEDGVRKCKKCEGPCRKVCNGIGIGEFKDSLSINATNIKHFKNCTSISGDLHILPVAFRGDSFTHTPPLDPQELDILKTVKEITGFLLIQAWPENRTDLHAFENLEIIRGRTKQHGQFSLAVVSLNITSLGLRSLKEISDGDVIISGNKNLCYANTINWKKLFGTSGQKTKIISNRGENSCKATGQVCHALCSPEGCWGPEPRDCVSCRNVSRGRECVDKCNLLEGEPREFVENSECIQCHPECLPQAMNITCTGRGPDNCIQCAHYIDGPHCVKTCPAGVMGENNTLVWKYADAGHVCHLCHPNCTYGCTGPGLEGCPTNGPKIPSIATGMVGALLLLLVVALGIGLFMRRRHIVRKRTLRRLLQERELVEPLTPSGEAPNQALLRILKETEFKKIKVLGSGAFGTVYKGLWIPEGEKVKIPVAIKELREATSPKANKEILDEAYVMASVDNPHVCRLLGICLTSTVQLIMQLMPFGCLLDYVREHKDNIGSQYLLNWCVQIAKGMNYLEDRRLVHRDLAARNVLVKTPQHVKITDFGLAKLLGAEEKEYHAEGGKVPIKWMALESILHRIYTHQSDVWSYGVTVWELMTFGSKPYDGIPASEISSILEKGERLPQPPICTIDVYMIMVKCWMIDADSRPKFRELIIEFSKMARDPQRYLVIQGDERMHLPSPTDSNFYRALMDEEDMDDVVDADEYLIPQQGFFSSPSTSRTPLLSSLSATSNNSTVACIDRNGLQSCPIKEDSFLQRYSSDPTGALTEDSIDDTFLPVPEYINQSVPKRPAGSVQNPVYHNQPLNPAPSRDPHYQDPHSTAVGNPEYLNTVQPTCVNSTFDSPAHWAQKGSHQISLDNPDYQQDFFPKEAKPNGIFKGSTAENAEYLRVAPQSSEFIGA

[8] = target: Epidermal growth factor receptor (Homo sapiens, UniProt P00533); test: Inhibition of recombinant human EGFR (696 to end residues) using poly(Glu, Tyr) 4:1 as substrate after 40 mins in presence of [gamma-33ATP] by radiometric scintillation counting analysis
[9] = target: Discoidin domain-containing receptor 2 (Homo sapiens, UniProt Q16832); test: Inhibition of recombinant human DDR2 S642A mutant (467 to end residues) using KKSRGDYMTMQIG as substrate after 40 mins in presence of [gamma-33ATP] by radiometric scintillation counting analysis
[10] = target: PI3-kinase p110-alpha/p85-alpha (Homo sapiens, UniProt P42336, E542K); test: Inhibition of recombinant human full length PI3K p110alpha/p85alpha E542K mutant using phosphatidylinositol 4,5-bisphosphate as substrate incubated for 40 mins in presence of [gamma33P]ATP by radiometric scintillation counting analysis
[11] = Inhibition of recombinant human Plk4 S34T mutant (1 to 273 residues) using casein as substrate incubated for 40 mins in presence of [gamma33P]ATP by radiometric scintillation counting analysis
[12] = target: Serine/threonine-protein kinase D2 (Homo sapiens, UniProt Q9BZL6); test: Inhibition of recombinant full-length human PKD2 using KKLNRTLSVA as substrate incubated for 40 mins in presence of [gamma33P]ATP by radiometric scintillation counting analysis
Rhodopsin kinase GRK7 = Rhodopsin kinase GRK7 (Homo sapiens, UniProt Q8WTQ7); test: Inhibition of recombinant full length human GRK7 using casein as substrate after 40 mins in presence of [gamma-33ATP] by radiometric scintillation counting analysis
Chain of Rhodopsin kinase GRK7 (Q8WTQ7 whole entry): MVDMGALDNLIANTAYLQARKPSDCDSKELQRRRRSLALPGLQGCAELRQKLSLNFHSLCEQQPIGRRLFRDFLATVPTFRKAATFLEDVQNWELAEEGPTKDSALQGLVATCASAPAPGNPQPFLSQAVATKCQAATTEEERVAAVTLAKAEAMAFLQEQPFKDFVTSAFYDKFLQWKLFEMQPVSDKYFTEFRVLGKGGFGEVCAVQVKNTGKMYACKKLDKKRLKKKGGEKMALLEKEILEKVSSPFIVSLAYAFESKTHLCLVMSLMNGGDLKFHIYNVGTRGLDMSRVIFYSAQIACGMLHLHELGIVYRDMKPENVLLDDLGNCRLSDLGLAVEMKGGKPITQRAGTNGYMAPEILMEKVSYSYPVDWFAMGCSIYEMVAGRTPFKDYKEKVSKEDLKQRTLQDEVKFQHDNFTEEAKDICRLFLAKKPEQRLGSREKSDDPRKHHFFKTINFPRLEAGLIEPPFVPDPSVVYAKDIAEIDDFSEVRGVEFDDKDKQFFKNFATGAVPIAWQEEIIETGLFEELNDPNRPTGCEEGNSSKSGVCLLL

[13] = Half life in human liver microsomes measured upto 45 mins in presence of NADPH by LC-MS analysis; format: ADME, Microsome
[14] = target: Macrophage colony-stimulating factor 1 receptor (Homo sapiens, UniProt P07333); test: Inhibition of recombinant human FMS (538 to end residues) using KKKSPGEYVNIEF as substrate after 40 mins in presence of [gamma-33ATP] by radiometric scintillation counting analysis
[15] = target: Macrophage-stimulating protein receptor (Homo sapiens, UniProt Q04912); test: Inhibition of recombinant human Ron (983 to end residues) using GGMEDIYFEFMGGKKK as substrate incubated for 40 mins in presence of [gamma33P]ATP by radiometric scintillation counting analysis
Chain of Macrophage-stimulating protein receptor (Q04912 25-304 limits assumed): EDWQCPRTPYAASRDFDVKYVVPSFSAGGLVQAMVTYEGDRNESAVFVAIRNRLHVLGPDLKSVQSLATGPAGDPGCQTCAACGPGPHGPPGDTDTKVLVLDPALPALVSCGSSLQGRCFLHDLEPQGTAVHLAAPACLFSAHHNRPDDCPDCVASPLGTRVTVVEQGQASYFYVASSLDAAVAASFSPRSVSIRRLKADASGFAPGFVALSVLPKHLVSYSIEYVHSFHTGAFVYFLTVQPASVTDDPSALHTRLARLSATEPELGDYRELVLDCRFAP
Chain of Macrophage-stimulating protein receptor (Q04912 310-1400 limits assumed): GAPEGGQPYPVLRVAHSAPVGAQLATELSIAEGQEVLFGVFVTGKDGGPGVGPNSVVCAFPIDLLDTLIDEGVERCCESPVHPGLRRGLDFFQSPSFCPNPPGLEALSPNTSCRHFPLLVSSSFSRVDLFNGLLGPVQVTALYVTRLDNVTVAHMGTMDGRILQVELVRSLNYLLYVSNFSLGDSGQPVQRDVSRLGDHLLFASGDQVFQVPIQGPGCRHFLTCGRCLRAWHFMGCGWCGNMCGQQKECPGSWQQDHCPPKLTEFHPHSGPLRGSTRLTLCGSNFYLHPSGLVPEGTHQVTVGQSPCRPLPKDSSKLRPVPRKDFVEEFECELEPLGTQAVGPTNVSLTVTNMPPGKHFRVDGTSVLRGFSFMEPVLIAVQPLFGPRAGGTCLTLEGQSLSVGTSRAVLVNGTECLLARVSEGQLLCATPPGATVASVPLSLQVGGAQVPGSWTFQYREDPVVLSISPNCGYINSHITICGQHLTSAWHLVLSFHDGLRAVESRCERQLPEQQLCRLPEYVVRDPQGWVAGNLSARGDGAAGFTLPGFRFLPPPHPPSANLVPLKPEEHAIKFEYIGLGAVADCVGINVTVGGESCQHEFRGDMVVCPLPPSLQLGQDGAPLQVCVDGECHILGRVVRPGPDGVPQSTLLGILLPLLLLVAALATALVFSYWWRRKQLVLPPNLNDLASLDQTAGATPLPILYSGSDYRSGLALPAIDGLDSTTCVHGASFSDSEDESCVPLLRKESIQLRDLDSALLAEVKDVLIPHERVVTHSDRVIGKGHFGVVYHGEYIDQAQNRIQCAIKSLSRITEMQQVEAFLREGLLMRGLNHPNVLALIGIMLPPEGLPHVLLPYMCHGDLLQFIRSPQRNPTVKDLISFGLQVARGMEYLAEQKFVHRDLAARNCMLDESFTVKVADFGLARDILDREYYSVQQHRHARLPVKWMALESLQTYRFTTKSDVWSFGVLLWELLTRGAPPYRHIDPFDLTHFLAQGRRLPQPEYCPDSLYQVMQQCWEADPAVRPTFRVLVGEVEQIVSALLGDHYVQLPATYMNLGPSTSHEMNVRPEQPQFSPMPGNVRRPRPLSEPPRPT

[16] = target: Calcium/calmodulin-dependent protein kinase type II subunit delta (Homo sapiens, UniProt Q13557); test: Inhibition of recombinant full length human CaMK2delta using calmodulin as substrate incubated for 40 mins in presence of [gamma-33ATP] by radiometric scintillation counting analysis
[17] = target: Serine/threonine-protein kinase TAO2 (Homo sapiens, UniProt Q9UL54); test: Inhibition of recombinant human TAO2 (1 to 320 residues) using myelin basic protein as substrate incubated for 40 mins in presence of [gamma33P]ATP by radiometric scintillation counting analysis
[18] = target: Mitogen-activated protein kinase 10 (Homo sapiens, UniProt P53779); test: Inhibition of recombinant full length human JNK3 using peptide substrate after 40 mins by [gamma-33ATP] by radiometric scintillation counting analysis
Focal adhesion kinase 1 = Focal adhesion kinase 1 (Homo sapiens, UniProt Q05397); test: Inhibition of recombinant human FAK (411 to 686 residues) using EEEEYEEEEEEYY as substrate after 40 mins in presence of [gamma-33ATP] by radiometric scintillation counting analysis
[19] = target: Wee1-like protein kinase 2 (Homo sapiens, UniProt P0C1S8); test: Inhibition of recombinant full length human WEE1b using LSNLYHQGKFLQTFCGSPLYRRR as substrate incubated for 120 mins in presence of [gamma33P]ATP by radiometric scintillation counting analysis
[20] = target: Epidermal growth factor receptor (Homo sapiens, UniProt P00533, L858R/T790M); test: Inhibition of recombinant human EGFR T790M/L858R double mutant (696 to end residues) using poly(Glu, Tyr) 4:1 as substrate after 40 mins in presence of [gamma-33ATP] by radiometric scintillation counting analysis
[21] = target: Calcium/calmodulin-dependent protein kinase type II subunit beta (Homo sapiens, UniProt Q13554); test: Inhibition of recombinant human CaMK2beta (1 to 315 residues) using calmodulin a substrate incubated for 40 mins in presence of [gamma-33ATP] by radiometric scintillation counting analysis
Chain of Calcium/calmodulin-dependent protein kinase type II subunit beta (Q13554 whole entry, the tested form may be a part): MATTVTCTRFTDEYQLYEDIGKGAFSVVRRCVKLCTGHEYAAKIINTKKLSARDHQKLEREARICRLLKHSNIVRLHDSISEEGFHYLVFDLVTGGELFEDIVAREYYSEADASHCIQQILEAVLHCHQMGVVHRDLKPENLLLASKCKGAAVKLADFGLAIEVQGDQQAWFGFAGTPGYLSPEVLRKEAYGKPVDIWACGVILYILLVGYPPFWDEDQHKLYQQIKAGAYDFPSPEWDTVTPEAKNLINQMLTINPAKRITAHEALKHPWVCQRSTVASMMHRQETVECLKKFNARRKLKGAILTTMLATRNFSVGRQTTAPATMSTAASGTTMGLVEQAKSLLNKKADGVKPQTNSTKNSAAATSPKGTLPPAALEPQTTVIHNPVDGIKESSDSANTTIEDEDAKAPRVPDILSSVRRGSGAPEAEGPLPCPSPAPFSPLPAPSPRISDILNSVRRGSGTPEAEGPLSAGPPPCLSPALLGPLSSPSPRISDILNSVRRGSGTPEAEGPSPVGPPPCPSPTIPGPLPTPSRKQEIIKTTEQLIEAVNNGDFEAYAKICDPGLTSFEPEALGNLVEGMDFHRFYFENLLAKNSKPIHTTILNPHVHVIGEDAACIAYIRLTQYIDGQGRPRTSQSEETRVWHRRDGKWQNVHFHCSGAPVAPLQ

[22] = target: Cyclin-dependent kinase 5/CDK5 activator 1 (Homo sapiens, UniProt Q00535); test: Inhibition of recombinant full length human CDK5/p25 using histone H1 as substrate incubated for 40 mins in presence of [gamma-33ATP] by radiometric scintillation counting analysis; format: protein-complex assay
[23] = target: Dual specificity mitogen-activated protein kinase kinase 1 (Homo sapiens, UniProt Q02750); test: Inhibition of recombinant full length human MEK1 using inactive MAPK2 as substrate incubated for 40 mins in presence of [gamma-33ATP by radiometric scintillation counting analysis
Ephrin type-B receptor 4 = Ephrin type-B receptor 4 (Homo sapiens, UniProt P54760); test: Inhibition of recombinant human EphB4 (561 to end residues) using poly(Glu, Tyr) 4:1 as substrate after 40 mins in presence of [gamma-33ATP] by radiometric scintillation counting analysis

CN(C)c1ccc(C(=O)Nc2cccc(NC(=O)COc3ccc4c(=O)ccoc4c3)c2)cc1
> 10 µM: IC50 [1] | IC50 [2] | IC50 [4] | IC50 [5] | IC50 (SRSF protein kinase 2) | IC50 [6] | IC50 [7] | IC50 [8] | IC50 [9] | IC50 [10] | IC50 [11] | IC50 [12] | IC50 (Rhodopsin kinase GRK7) | IC50 [14] | IC50 [15] | IC50 [16] | IC50 [17] | IC50 [18] | IC50 (Focal adhesion kinase 1) | IC50 [19] | IC50 [20] | IC50 [21] | IC50 [22] | IC50 [23] | IC50 (Ephrin type-B receptor 4)
8.05 min: half-life [13]
9.41 ×10⁻⁶ cm/s: Papp at 1.5 h [3]
